Results from PubChem BioAssay (NCI).
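96-well plates; 48 h exposure; 5 concentrations. Endpoints by linear interpolation between flanking doses. Not reached: highest tested concentration assigned. Definition used: TGI = concentration required for complete inhibition of growth.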

Experiments:
Assay in all cases: growth of human tumour cells (NCI), 48 h
OVCAR-3 ovarian = tested on: OVCAR-3 ovarian
HCT-15 colon = tested on: HCT-15 colon
T-47D breast = tested on: T-47D breast
SN12C renal = tested on: SN12C renal
SF-295 CNS = tested on: SF-295 CNS
HCT-116 colon = tested on: HCT-116 colon
SNB-75 CNS = tested on: SNB-75 CNS
NCI-H23 lung = tested on: NCI-H23 lung
U251 CNS = tested on: U251 CNS
COLO 205 colon = tested on: COLO 205 colon
RPMI-8226 leukemia = tested on: RPMI-8226 leukemia
DU-145 prostate = tested on: DU-145 prostate
SF-539 CNS = tested on: SF-539 CNS
SNB-19 CNS = tested on: SNB-19 CNS
MDA-MB-435 = tested on: MDA-MB-435
MDA-MB-231 breast = tested on: MDA-MB-231 breast
CAKI-1 renal = tested on: CAKI-1 renal
HT29 colon = tested on: HT29 colon
RXF 393 renal = tested on: RXF 393 renal
KM12 colon = tested on: KM12 colon
HOP-62 NSCLC = tested on: HOP-62 NSCLC
NCI-H226 lung = tested on: NCI-H226 lung
A549 NSCLC = tested on: A549 NSCLC
BT-549 breast = tested on: BT-549 breast
IGROV1 ovarian = tested on: IGROV1 ovarian
MALME-3M melanoma = tested on: MALME-3M melanoma
OVCAR-4 ovarian = tested on: OVCAR-4 ovarian
A498 renal = tested on: A498 renal
MOLT-4 leukemia = tested on: MOLT-4 leukemia
SK-OV-3 ovarian = tested on: SK-OV-3 ovarian
HOP-92 NSCLC = tested on: HOP-92 NSCLC
LOX IMVI melanoma = tested on: LOX IMVI melanoma
EKVX NSCLC = tested on: EKVX NSCLC
HCC-2998 colon = tested on: HCC-2998 colon
SK-MEL-5 melanoma = tested on: SK-MEL-5 melanoma
SK-MEL-2 melanoma = tested on: SK-MEL-2 melanoma
SK-MEL-28 melanoma = tested on: SK-MEL-28 melanoma
NCI-H460 lung = tested on: NCI-H460 lung
M14 melanoma = tested on: M14 melanoma
HS 578T breast = tested on: HS 578T breast
CCRF-CEM leukemia = tested on: CCRF-CEM leukemia
SW-620 colon = tested on: SW-620 colon
PC-3 prostate = tested on: PC-3 prostate
NCI-H522 lung = tested on: NCI-H522 lung
NCI/ADR-RES ovarian = tested on: NCI/ADR-RES ovarian
UACC-257 melanoma = tested on: UACC-257 melanoma
ACHN renal = tested on: ACHN renal
SF-268 CNS = tested on: SF-268 CNS
OVCAR-5 ovarian = tested on: OVCAR-5 ovarian
TK-10 renal = tested on: TK-10 renal
MCF7 breast = tested on: MCF7 breast
UO-31 renal = tested on: UO-31 renal
UACC-62 melanoma = tested on: UACC-62 melanoma
OVCAR-8 ovarian = tested on: OVCAR-8 ovarian
786-0 renal = tested on: 786-0 renal
MDA-N = tested on: MDA-N
K-562 leukemia = tested on: K-562 leukemia
HL-60(TB) leukemia = tested on: HL-60(TB) leukemia
SR leukemia = tested on: SR leukemia

Compound: Cc1ccc2c(n1)C(=O)c1ccccc1C2=O
- TGI (OVCAR-3 ovarian): 16.5 µM
- TGI (HCT-15 colon): 82.9 µM
- TGI (T-47D breast): > 85 µM
- TGI (SN12C renal): > 88.2 µM
- TGI (SF-295 CNS): > 83.3 µM
- TGI (HCT-116 colon): 61.8 µM
- TGI (SNB-75 CNS): 92.4 µM
- TGI (NCI-H23 lung): 38.1 µM
- TGI (U251 CNS): 97.7 µM
- TGI (COLO 205 colon): 37 µM
- TGI (RPMI-8226 leukemia): > 95.8 µM
- TGI (DU-145 prostate): 36.4 µM
- TGI (SF-539 CNS): > 87.1 µM
- TGI (SNB-19 CNS): > 87.9 µM
- TGI (MDA-MB-435): 32.6 µM
- TGI (MDA-MB-231 breast): 75.5 µM
- TGI (CAKI-1 renal): > 89.2 µM
- TGI (HT29 colon): > 87.9 µM
- TGI (RXF 393 renal): 87.2 µM
- TGI (KM12 colon): > 100 µM
- TGI (HOP-62 NSCLC): > 85.4 µM
- TGI (NCI-H226 lung): > 100 µM
- TGI (A549 NSCLC): 69 µM
- TGI (BT-549 breast): 89 µM
- TGI (IGROV1 ovarian): 73.4 µM
- TGI (MALME-3M melanoma): 23.2 µM
- TGI (OVCAR-4 ovarian): 55.4 µM
- TGI (A498 renal): > 88.4 µM
- TGI (MOLT-4 leukemia): > 88.7 µM
- TGI (SK-OV-3 ovarian): > 100 µM
- TGI (HOP-92 NSCLC): > 100 µM
- TGI (LOX IMVI melanoma): 53.1 µM
- TGI (EKVX NSCLC): 96.3 µM
- TGI (HCC-2998 colon): > 92.2 µM
- TGI (SK-MEL-5 melanoma): 19.7 µM
- TGI (SK-MEL-2 melanoma): > 89 µM
- TGI (SK-MEL-28 melanoma): > 100 µM
- TGI (NCI-H460 lung): > 69 µM
- TGI (M14 melanoma): > 75.5 µM
- TGI (HS 578T breast): > 100 µM
- TGI (CCRF-CEM leukemia): > 100 µM
- TGI (SW-620 colon): > 95.4 µM
- TGI (PC-3 prostate): 68.8 µM
- TGI (NCI-H522 lung): 52.4 µM
- TGI (NCI/ADR-RES ovarian): 60.1 µM
- TGI (UACC-257 melanoma): 37.9 µM
- TGI (ACHN renal): > 100 µM
- TGI (SF-268 CNS): > 100 µM
- TGI (OVCAR-5 ovarian): > 56.5 µM
- TGI (TK-10 renal): > 100 µM
- TGI (MCF7 breast): 38.8 µM
- TGI (UO-31 renal): > 92.7 µM
- TGI (UACC-62 melanoma): 43.6 µM
- TGI (OVCAR-8 ovarian): 74.8 µM
- TGI (786-0 renal): > 100 µM
- TGI (MDA-N): > 59.9 µM
- TGI (K-562 leukemia): > 84 µM
- TGI (HL-60(TB) leukemia): 45.7 µM

Compound: CCOC(=O)C(NC(=O)Nc1ccc(Cl)c(Cl)c1)C(F)(F)F (configuration not stated)
- TGI (HCT-15 colon): > 100 µM
- TGI (T-47D breast): > 100 µM
- TGI (SN12C renal): > 100 µM
- TGI (HCT-116 colon): > 100 µM
- TGI (SNB-75 CNS): > 100 µM
- TGI (NCI-H23 lung): > 100 µM
- TGI (U251 CNS): > 100 µM
- TGI (COLO 205 colon): > 100 µM
- TGI (RPMI-8226 leukemia): > 100 µM
- TGI (SF-539 CNS): > 100 µM
- TGI (SNB-19 CNS): > 100 µM
- TGI (MDA-MB-435): > 100 µM
- TGI (HT29 colon): > 100 µM
- TGI (RXF 393 renal): > 100 µM
- TGI (A549 NSCLC): > 100 µM
- TGI (BT-549 breast): > 100 µM
- TGI (IGROV1 ovarian): > 100 µM
- TGI (A498 renal): > 100 µM
- TGI (MOLT-4 leukemia): > 100 µM
- TGI (SK-OV-3 ovarian): > 100 µM
- TGI (LOX IMVI melanoma): > 100 µM
- TGI (EKVX NSCLC): > 100 µM
- TGI (HCC-2998 colon): > 100 µM
- TGI (SK-MEL-5 melanoma): > 100 µM
- TGI (SK-MEL-2 melanoma): > 100 µM
- TGI (SK-MEL-28 melanoma): > 100 µM
- TGI (M14 melanoma): > 100 µM
- TGI (HS 578T breast): > 100 µM
- TGI (CCRF-CEM leukemia): > 100 µM
- TGI (SW-620 colon): > 100 µM
- TGI (PC-3 prostate): > 100 µM
- TGI (NCI/ADR-RES ovarian): > 100 µM
- TGI (UACC-257 melanoma): > 100 µM
- TGI (ACHN renal): > 100 µM
- TGI (SF-268 CNS): > 100 µM
- TGI (OVCAR-5 ovarian): > 100 µM
- TGI (TK-10 renal): > 100 µM
- TGI (SR leukemia): > 100 µM
- TGI (UO-31 renal): > 100 µM
- TGI (OVCAR-8 ovarian): > 100 µM
- TGI (786-0 renal): > 100 µM
- TGI (MDA-N): > 100 µM
- TGI (K-562 leukemia): > 100 µM
- TGI (HL-60(TB) leukemia): > 100 µM
